≈ marks a conversion by molar mass, not a printed value.
How the values were obtained:
Assay type in all cases: functional
Pseudomonas aeruginosa [1] = assay: Antibacterial activity against Pseudomonas aeruginosa 14-16 after 18 to 24 hrs by CLSI M100-S11 method
Staphylococcus aureus [2] = assay: Antibacterial activity against methicillin-sensitive Staphylococcus aureus 14-4 after 18 to 24 hrs by CLSI M100-S11 method
Staphylococcus aureus [3] = assay: Antibacterial activity against methicillin-resistant Staphylococcus aureus 14-4 after 18 to 24 hrs by CLSI M100-S11 method
Escherichia coli [4] = assay: Antibacterial activity against extended-spectrum beta-lactamase-producing Escherichia coli 14-2 after 18 to 24 hrs by CLSI M100-S11 method
Enterococcus faecalis [5] = assay: Antibacterial activity against Enterococcus faecalis 14-3 after 18 to 24 hrs by CLSI M100-S11 method
[6] = system: Mycobacterium tuberculosis; assay: Antimycobacterial activity against Mycobacterium tuberculosis H37Rv ATCC 27294 after 3 days by microplate Alamar Blue assay; settings: H37Rv ATCC 27294, 72 h
Pseudomonas aeruginosa [7] = assay: Antibacterial activity against Pseudomonas aeruginosa 14-14 after 18 to 24 hrs by CLSI M100-S11 method
Pseudomonas aeruginosa [8] = assay: Antibacterial activity against Pseudomonas aeruginosa ATCC 27853 after 18 to 24 hrs by CLSI M100-S11 method
[9] = system: Staphylococcus epidermidis; assay: Antibacterial activity against methicillin-resistant Staphylococcus epidermidis 14-37 after 18 to 24 hrs by CLSI M100-S11 method
[10] = system: Staphylococcus epidermidis; assay: Antibacterial activity against methicillin-sensitive Staphylococcus epidermidis 14-4 after 18 to 24 hrs by CLSI M100-S11 method
Enterococcus faecium [11] = assay: Antibacterial activity against Enterococcus faecium 14-2 after 18 to 24 hrs by CLSI M100-S11 method
Staphylococcus aureus [12] = assay: Antibacterial activity against methicillin-sensitive Staphylococcus aureus 14-3 after 18 to 24 hrs by CLSI M100-S11 method
Pseudomonas aeruginosa [13] = assay: Antibacterial activity against Pseudomonas aeruginosa 14-19 after 18 to 24 hrs by CLSI M100-S11 method
Staphylococcus aureus [14] = assay: Antibacterial activity against Staphylococcus aureus CMCC 26003 after 18 to 24 hrs by CLSI M100-S11 method
Enterococcus faecalis [15] = assay: Antibacterial activity against Enterococcus faecalis 14-1 after 18 to 24 hrs by CLSI M100-S11 method
Klebsiella pneumoniae [16] = assay: Antibacterial activity against Klebsiella pneumoniae 14-3 after 18 to 24 hrs by CLSI M100-S11 method
Klebsiella pneumoniae [17] = assay: Antibacterial activity against Klebsiella pneumoniae 14-1 after 18 to 24 hrs by CLSI M100-S11 method
Klebsiella pneumoniae [18] = assay: Antibacterial activity against extended-spectrum beta-lactamase-producing Klebsiella pneumoniae 14-19 after 18 to 24 hrs by CLSI M100-S11 method
[19] = system: Staphylococcus epidermidis; assay: Antibacterial activity against methicillin-sensitive Staphylococcus epidermidis 14-6 after 18 to 24 hrs by CLSI M100-S11 method
Enterococcus faecalis [20] = assay: Antibacterial activity against Enterococcus faecalis 14-2 after 18 to 24 hrs by CLSI M100-S11 method
Klebsiella pneumoniae [21] = assay: Antibacterial activity against Klebsiella pneumoniae 14-4 after 18 to 24 hrs by CLSI M100-S11 method
[22] = system: Staphylococcus epidermidis; assay: Antibacterial activity against methicillin-resistant Staphylococcus epidermidis 14-22 after 18 to 24 hrs by CLSI M100-S11 method
Pseudomonas aeruginosa [23] = assay: Antibacterial activity against Pseudomonas aeruginosa 14-9 after 18 to 24 hrs by CLSI M100-S11 method
Escherichia coli [24] = assay: Antibacterial activity against extended-spectrum beta-lactamase-producing Escherichia coli 14-1 after 18 to 24 hrs by CLSI M100-S11 method
Escherichia coli [25] = assay: Antibacterial activity against Escherichia coli ATCC 25922 after 18 to 24 hrs by CLSI M100-S11 method
Klebsiella pneumoniae [26] = assay: Antibacterial activity against extended-spectrum beta-lactamase-producing Klebsiella pneumoniae 14-17 after 18 to 24 hrs by CLSI M100-S11 method
Staphylococcus aureus [27] = assay: Antibacterial activity against methicillin-resistant Staphylococcus aureus 14-5 after 18 to 24 hrs by CLSI M100-S11 method
Escherichia coli [28] = assay: Antibacterial activity against Escherichia coli 14-2 after 18 to 24 hrs by CLSI M100-S11 method
Streptococcus pneumoniae = assay: Antibacterial activity against Streptococcus pneumoniae ATCC 19615 after 18 to 24 hrs by CLSI M100-S11 method
Klebsiella pneumoniae [29] = assay: Antibacterial activity against Klebsiella pneumoniae 14-2 after 18 to 24 hrs by CLSI M100-S11 method
Escherichia coli [30] = assay: Antibacterial activity against Escherichia coli 14-1 after 18 to 24 hrs by CLSI M100-S11 method
Staphylococcus aureus [31] = assay: Antibacterial activity against methicillin-sensitive Staphylococcus aureus 14-2 after 18 to 24 hrs by CLSI M100-S11 method
Klebsiella pneumoniae [32] = assay: Antibacterial activity against extended-spectrum beta-lactamase-producing Klebsiella pneumoniae 14-18 after 18 to 24 hrs by CLSI M100-S11 method
Pseudomonas aeruginosa [33] = assay: Antibacterial activity against Pseudomonas aeruginosa 14-15 after 18 to 24 hrs by CLSI M100-S11 method
[34] = system: Staphylococcus epidermidis; assay: Antibacterial activity against methicillin-sensitive Staphylococcus epidermidis 14-2 after 18 to 24 hrs by CLSI M100-S11 method
Enterococcus faecium [35] = assay: Antibacterial activity against Enterococcus faecium 14-1 after 18 to 24 hrs by CLSI M100-S11 method
[36] = system: Staphylococcus epidermidis; assay: Antibacterial activity against methicillin-resistant Staphylococcus epidermidis 14-39 after 18 to 24 hrs by CLSI M100-S11 method

SMILES | MIC (Staphylococcus aureus [2]) [µg/mL] | MIC (Staphylococcus aureus [3]) [µg/mL] | MIC (Escherichia coli [4]) [µg/mL] | MIC (Enterococcus faecalis [5]) [µg/mL] | MIC [6] [µg/mL] | MIC [9] [µg/mL] | MIC [10] [µg/mL] | MIC (Enterococcus faecium [11]) [µg/mL] | MIC (Staphylococcus aureus [12]) [µg/mL] | MIC (Staphylococcus aureus [14]) [µg/mL] | MIC (Enterococcus faecalis [15]) [µg/mL] | MIC (Klebsiella pneumoniae [16]) [µg/mL] | MIC (Klebsiella pneumoniae [17]) [µg/mL] | MIC (Klebsiella pneumoniae [18]) [µg/mL] | MIC [19] [µg/mL] | MIC (Enterococcus faecalis [20]) [µg/mL] | MIC (Klebsiella pneumoniae [21]) [µg/mL] | MIC [22] [µg/mL] | MIC (Escherichia coli [24]) [µg/mL] | MIC (Escherichia coli [25]) [µg/mL] | also measured
CO/N=C1\CCN(c2nc3c(cc2F)c(=O)c(C(=O)O)cn3-c2nc(N)c(F)cc2F)CC1N (stereo not drawn) | 16 (≈ 33.5 µM) | > 128 | > 128 | > 128 | > 32 | > 128 | > 128 | 64 (≈ 134 µM) | 8 (≈ 16.8 µM) | 8 (≈ 16.8 µM) | > 128 | > 128 | > 128 | > 128 | > 128 | > 128 | > 128 | > 128 | > 128 | 16 (≈ 33.5 µM) | MIC (Pseudomonas aeruginosa [1]): 128 µg/mL (≈ 268 µM); MIC (Pseudomonas aeruginosa [7]): 128 µg/mL (≈ 268 µM); MIC (Pseudomonas aeruginosa [8]): 128 µg/mL (≈ 268 µM); MIC (Pseudomonas aeruginosa [13]): 128 µg/mL (≈ 268 µM); MIC (Pseudomonas aeruginosa [23]): 128 µg/mL (≈ 268 µM); MIC (Klebsiella pneumoniae [26]): > 128 µg/mL; MIC (Staphylococcus aureus [27]): > 128 µg/mL; MIC (Escherichia coli [28]): > 128 µg/mL; MIC (Streptococcus pneumoniae): 64 µg/mL (≈ 134 µM); MIC (Klebsiella pneumoniae [29]): > 128 µg/mL; MIC (Escherichia coli [30]): > 128 µg/mL; MIC (Staphylococcus aureus [31]): 8 µg/mL (≈ 16.8 µM); MIC (Klebsiella pneumoniae [32]): > 128 µg/mL; MIC (Pseudomonas aeruginosa [33]): 128 µg/mL (≈ 268 µM); MIC [34]: > 128 µg/mL; MIC (Enterococcus faecium [35]): > 128 µg/mL
O=C(O)c1cn(C2CC2)c2cc(N3CCNCC3)c(F)cc2c1=O [CIPROFLOXACIN] |  |  |  |  | 0.25 (≈ 0.754 µM) |  |  |  |  |  |  |  |  |  |  |  |  |  |  |  | 
NNC(=O)c1ccncc1 [ISONIAZID] |  |  |  |  | 0.05 (≈ 0.365 µM) |  |  |  |  |  |  |  |  |  |  |  |  |  |  |  | 
C[C@H]1COc2c(N3CCN(C)CC3)c(F)cc3c(=O)c(C(=O)O)cn1c23.C[C@H]1COc2c(N3CCN(C)CC3)c(F)cc3c(=O)c(C(=O)O)cn1c23.O [LEVOFLOXACIN] | 0.5 | 64 | 8 | 64 | 0.25 | 64 | 1 | 1 | 0.125 | 0.125 | 16 | 16 | 16 | 64 | 2 | 32 | 8 | 32 | 2 | 0.125 | MIC (Klebsiella pneumoniae [26]): 4 µg/mL; MIC (Staphylococcus aureus [27]): 8 µg/mL; MIC (Escherichia coli [28]): 4 µg/mL; MIC [36]: 64 µg/mL; MIC (Klebsiella pneumoniae [29]): 8 µg/mL; MIC (Escherichia coli [30]): 4 µg/mL; MIC (Staphylococcus aureus [31]): 0.25 µg/mL; MIC [34]: 128 µg/mL; MIC (Enterococcus faecium [35]): 128 µg/mL
CO[C@H]1/C=C/O[C@@]2(C)Oc3c(C)c(O)c4c(O)c(c(/C=N/N5CCN(C)CC5)c(O)c4c3C2=O)NC(=O)/C(C)=C\C=C\[C@H](C)[C@H](O)[C@@H](C)[C@@H](O)[C@@H](C)[C@H](OC(C)=O)[C@@H]1C [RIFAMPIN] |  |  |  |  | 0.05 (≈ 0.0608 µM) |  |  |  |  |  |  |  |  |  |  |  |  |  |  |  | 
